Measured values from paper PMC5551389 (Nature, 2016).
pEC50: −log10 of the molar value.

Experiments:
[1] = test system: CHIV; assay: microbe, parasite or virus in culture; type: cell-based; conditions: Chikungunya virus, U2OS
[2] = test system: human monocyte-derived macrophages
[3] = test system: HIV-1; assay: microbe, parasite or virus in culture; type: cell-based, human immunodeficiency virus type 1
[4] = test system: RSV A2; assay: microbe, parasite or virus in culture; type: cell-based; conditions: human respiratory syncytial virus

CCC(CC)COC(=O)[C@H](C)N[P@](=O)(OC[C@H]1O[C@@](C#N)(c2ccc3c(N)ncnn23)[C@H](O)[C@@H]1O)Oc1ccccc1 [GS-5734]
pEC50 ([1]; read-out: Antiviral activity EC50): < 4.70 | EC90 ([1]; read-out: Antiviral activity EC90): > 20 µM | Intracellular NTP levels, fold higher than with Nuc [2]: up to 30 fold | pEC50 ([3]; Human immunodeficiency virus 1, read-out: Antiviral activity EC50): < 4.70 | EC90 ([3]; Human immunodeficiency virus 1, read-out: Antiviral activity EC90): > 20 µM | pEC50 ([4]; HEp-2, read-out: Antiviral activity EC50): 7.72 | EC90 ([4]; HEp-2, read-out: Antiviral activity EC90): 0.051 µM
